Measured values taken from ChEMBL document CHEMBL2385074, “Structure-activity relationship analysis of bufadienolide-induced in vitro growth inhibitory effects on mouse and human cancer cells” (J Nat Prod, 2013).
Active and inactive are the calls of the source. No cut-off for these calls is given here.

Assays:
[1] = Cytotoxicity against human Hs683 cells after 3 days by MTT assay; format: functional, cell-based; details: Hs 683, 72 h
[2] = Cytotoxicity against mouse CT26.WT cells after 3 days by MTT assay; format: functional, cell-based; details: 72 h
SK-MEL-28 [3] = assay: Cytotoxicity against human SK-MEL-28 cells after 3 days by MTT assay; format: functional, cell-based; details: SK-MEL-28, 72 h
PC-3 [4] = assay: Cytotoxicity against human PC3 cells after 3 days by MTT assay; format: functional, cell-based; details: PC-3, 72 h
A549 [5] = assay: Cytotoxicity against human A549 cells after 3 days by MTT assay; format: functional, cell-based; details: A549, 72 h
MCF7 [6] = assay: Cytotoxicity against human MCF7 cells after 3 days by MTT assay; format: functional, cell-based; details: MCF7, 72 h
[7] = Cytotoxicity against human U373 cells after 3 days by MTT assay; format: functional, cell-based, U-373MG ATCC; details: U373 MG, 72 h
B16-F10 [8] = assay: Cytotoxicity against mouse B16F10 cells after 3 days by MTT assay; format: functional, cell-based; details: B16-F10, 72 h
Hs 683 = assay: Cytotoxicity against human Hs683 cells at <= 10 uM after 3 days by MTT assay; format: functional, cell-based
U-373MG ATCC = assay: Cytotoxicity against human U373 cells at <= 10 uM after 3 days by MTT assay; format: functional, cell-based
MCF7 [9] = assay: Cytotoxicity against human MCF7 cells at <= 10 uM after 3 days by MTT assay; format: functional, cell-based
PC-3 [10] = assay: Cytotoxicity against human PC3 cells at <= 10 uM after 3 days by MTT assay; format: functional, cell-based
CT26.WT = assay: Cytotoxicity against mouse CT26.WT cells at <= 10 uM after 3 days by MTT assay; format: functional, cell-based
A549 [11] = assay: Cytotoxicity against human A549 cells at <= 10 uM after 3 days by MTT assay; format: functional, cell-based
B16-F10 [12] = assay: Cytotoxicity against mouse B16F10 cells at <= 10 uM after 3 days by MTT assay; format: functional, cell-based
SK-MEL-28 [13] = assay: Cytotoxicity against human SK-MEL-28 cells at <= 10 uM after 3 days by MTT assay; format: functional, cell-based

Row | SMILES | IC50 [1] [nM] | IC50 [2] [nM] | IC50 (SK-MEL-28 [3]) [nM] | IC50 (PC-3 [4]) [nM] | IC50 (A549 [5]) [nM] | IC50 (MCF7 [6]) [nM] | IC50 [7] [nM] | IC50 (B16-F10 [8]) [nM] | Activity (Hs 683) | Activity (U-373MG ATCC) | Activity (MCF7 [9]) | Activity (PC-3 [10]) | Activity (CT26.WT) | Activity (A549 [11]) | Activity (B16-F10 [12]) | Activity (SK-MEL-28 [13])
1 | C[C@@H]1O[C@@H](O[C@H]2CC[C@]3(C=O)[C@H]4CC[C@]5(C)[C@@H](c6ccc(=O)oc6)CC[C@]5(O)[C@@H]4CC[C@]3(O)C2)[C@H](O)[C@H](O)[C@H]1O[C@@H]1O[C@H](CO)[C@@H](O)[C@H](O)[C@H]1O [HELLEBRIN] | 7 | > 10000 | 68 | 11 | 6 | 44 | 36 | > 10000 | – | – | – | – | – | – | – | –
2 | CC(=O)O[C@H]1C[C@]2(O)[C@@H]3CC[C@@H]4C[C@@H](O)CC[C@]4(C)[C@H]3CC[C@]2(C)[C@H]1c1ccc(=O)oc1 [BUFOTALIN] | 9 | > 10000 | 65 | 34 | 14 | 37 | 74 | > 10000 | – | – | – | – | – | – | – | –
3 | COC(=O)[C@H]1[C@@H](O)[C@H]2O[C@]23[C@@H]2CC[C@@H]4C[C@@H](OC(C)=O)CC[C@]4(C)[C@H]2CC[C@]13C | – | – | – | – | – | – | – | – | inactive | inactive | inactive | inactive | inactive | inactive | inactive | inactive
4 | CC(=O)OC[C@H]1CC[C@H]2[C@@H]3CC[C@@H]4C[C@@H](OC(C)=O)CC[C@]4(C)[C@H]3C(=O)[C@@H](OC(C)=O)[C@]12C | – | – | – | – | – | – | – | – | inactive | inactive | inactive | inactive | inactive | inactive | inactive | inactive
5 | COC(=O)[C@H]1CC[C@]2(O)[C@@H]3CC[C@@H]4C[C@@H](OC(C)=O)CC[C@]4(C)[C@H]3[C@H](OC(C)=O)C[C@]12C | – | – | – | – | – | – | – | – | inactive | inactive | inactive | inactive | inactive | inactive | inactive | inactive
6 | C[C@]12CC[C@H](O)C[C@H]1CC[C@@H]1[C@@H]2C(=O)[C@@H](O)[C@]2(C)[C@@H](c3ccc(=O)oc3)CC[C@]12O [BUFARENOGIN] | 2680 | > 10000 | > 10000 | 7420 | 3840 | 9300 | > 10000 | > 10000 | – | – | – | – | – | – | – | –
7 | COC(=O)[C@H]1CC[C@]2(O)[C@@H]3CC[C@@H]4C[C@@H](OC(C)=O)CC[C@]4(C)[C@H]3[C@H](OC(C)=O)C(=O)[C@]12C | – | – | – | – | – | – | – | – | inactive | inactive | inactive | inactive | inactive | inactive | inactive | inactive
8 | CC(=O)O[C@H]1CC[C@@]2(C=O)[C@H](CC[C@@H]3[C@@H]2CC[C@]2(C)[C@@H](c4ccc(=O)oc4)C[C@H]4O[C@]342)C1 | 3660 | > 10000 | > 10000 | 5340 | 7140 | > 10000 | 7050 | > 10000 | – | – | – | – | – | – | – | –
9 | CC(=O)N[C@@H]1CC[C@@]2(C)[C@H](CC[C@@H]3[C@@H]2CC[C@]2(C)[C@@H](c4ccc(=O)oc4)[C@@H](OC(C)=O)[C@H]4O[C@]342)C1 | 312 | > 10000 | 3510 | 426 | 302 | 726 | 384 | > 10000 | – | – | – | – | – | – | – | –
10 | C[C@]12CC[C@H](O)C[C@@H]1CC[C@@H]1[C@@H]2CC[C@]2(C)[C@@H](c3ccc(=O)oc3)CC[C@]12O | 21 | > 10000 | 463 | 67 | – | 428 | 362 | > 10000 | – | – | – | – | – | – | – | –
